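In this assay, cells in 96-well plates receive the compound at five concentrations for 48 hours. Endpoints are linearly interpolated between the surrounding concentrations. GI50 = concentration required for 50% inhibition of growth.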 Activity calls are given as the source filed them. Cut-off read from the data, not from the text of the source: active = GI50 up to about 1.1 µM and inactive = higher.
Tests used:
Assay in all cases: growth of human tumour cells (NCI), 48 h
[1] = tested on: UACC-62
[2] = tested on: 786-0
[3] = tested on: HL-60
[4] = tested on: SF-295
[5] = tested on: HT-29
[6] = tested on: UACC-257
[7] = tested on: COLO 205
[8] = tested on: HOP-92
[9] = tested on: NCI-H460
[10] = tested on: SK-MEL-28
[11] = tested on: U-251
[12] = tested on: M14
[13] = tested on: SR
[14] = tested on: OVCAR-8
[15] = tested on: HCT-15

Compound	GI50 [1]	GI50 [2]	GI50 [3]	GI50 [4]	GI50 [5]	GI50 [6]	GI50 [7]	GI50 [8]	GI50 [9]	GI50 [10]	GI50 [11]	GI50 [12]	GI50 [13]	GI50 [14]	GI50 [15] [µM]
COc1cc(Br)c(CC2NCCc3cc(OC)c(OC)cc32)cc1OC (stereo not given)	77.4 µM (inactive)	93.5 µM (inactive)	28.4 µM (inactive)	12 µM (inactive)	34 µM (inactive)	40.2 µM (inactive)	32.7 µM (inactive)	16.5 µM (inactive)	55.2 µM (inactive)	70.5 µM (inactive)	84.3 µM (inactive)	44.7 µM (inactive)	50.9 µM (inactive)	86.1 µM (inactive)	
COC(=O)/C(C)=C/[N+](=O)[O-]	17.9 µM (inactive)	17.7 µM (inactive)	14.1 µM (inactive)	16.6 µM (inactive)	20.6 µM (inactive)	15.8 µM (inactive)	4.67 µM (inactive)	9.53 µM (inactive)	22.2 µM (inactive)		18.5 µM (inactive)	15.7 µM (inactive)		22.2 µM (inactive)	13.5
O=c1c2ccccc2nc(-c2cccc(Cl)c2)n1NC1OC(CO)C(O)C(O)C1O (stereo not given)	> 100 µM (inactive)	> 100 µM (inactive)	> 100 µM (inactive)	> 100 µM (inactive)	> 100 µM (inactive)	> 100 µM (inactive)	> 100 µM (inactive)	> 100 µM (inactive)	> 100 µM (inactive)	> 100 µM (inactive)	> 100 µM (inactive)	> 100 µM (inactive)		> 100 µM (inactive)	> 100
O=c1[nH]c(=O)n(C2CC(O)C(CO)O2)cc1C#Cc1ccc(C(F)(F)F)cc1 (stereo not given)	> 100 µM (inactive)	> 100 µM (inactive)	> 100 µM (inactive)	> 100 µM (inactive)	> 100 µM (inactive)	> 100 µM (inactive)	> 100 µM (inactive)	23.9 µM (inactive)	> 100 µM (inactive)	> 100 µM (inactive)	> 100 µM (inactive)	> 100 µM (inactive)	> 100 µM (inactive)	> 100 µM (inactive)	> 100
COc1ccccc1NS(=O)(=O)c1cc(C(C)(C)C)ccc1OCCOc1ccc(C(C)(C)C)cc1S(=O)(=O)Nc1ccccc1OC	> 100 µM (inactive)	> 100 µM (inactive)	> 100 µM (inactive)	> 100 µM (inactive)	> 100 µM (inactive)	> 100 µM (inactive)	> 100 µM (inactive)	> 100 µM (inactive)	> 100 µM (inactive)	> 100 µM (inactive)	> 100 µM (inactive)	> 100 µM (inactive)		> 100 µM (inactive)	> 100
O=C(Nc1ccn(CCOC(=O)c2ccccc2)c(=O)n1)c1ccccc1	> 100 µM (inactive)	> 100 µM (inactive)	> 100 µM (inactive)	> 100 µM (inactive)	> 100 µM (inactive)	> 100 µM (inactive)	> 100 µM (inactive)	> 100 µM (inactive)	> 100 µM (inactive)	> 100 µM (inactive)	> 100 µM (inactive)	> 100 µM (inactive)	> 100 µM (inactive)	> 100 µM (inactive)	> 100
CN(C)CCN(C)CC1COC(C)(C)O1 (stereo not given)	> 100 µM (inactive)	> 100 µM (inactive)	> 100 µM (inactive)	> 100 µM (inactive)	> 100 µM (inactive)	> 100 µM (inactive)	> 100 µM (inactive)	> 100 µM (inactive)	> 100 µM (inactive)	> 100 µM (inactive)	> 100 µM (inactive)	> 100 µM (inactive)	> 100 µM (inactive)	> 100 µM (inactive)	
Cc1cccc(NC(=O)C(=O)Cc2nc3ccccc3nc2O)c1C	> 100 µM (inactive)	> 100 µM (inactive)	> 100 µM (inactive)	> 100 µM (inactive)	> 100 µM (inactive)	> 100 µM (inactive)	> 100 µM (inactive)	> 100 µM (inactive)	> 100 µM (inactive)	> 100 µM (inactive)	> 100 µM (inactive)	> 100 µM (inactive)	> 100 µM (inactive)	> 100 µM (inactive)	> 100
C[C@]12CCC(=O)C=C1CC[C@@H]1C2CC[C@]2(C)Nc3[nH]ncc3CC12 (stereo not given in full)	> 100 µM (inactive)	> 100 µM (inactive)	> 100 µM (inactive)	94.2 µM (inactive)	> 100 µM (inactive)	> 100 µM (inactive)			> 100 µM (inactive)	> 100 µM (inactive)	> 100 µM (inactive)	> 100 µM (inactive)		> 100 µM (inactive)	> 100
O=C(N/N=C/c1cc(Cl)cc(Cl)c1O)c1ccncc1	63 µM (inactive)	57.9 µM (inactive)	26.4 µM (inactive)	60.1 µM (inactive)	> 10 µM (inactive)	> 100 µM (inactive)	> 100 µM (inactive)		39 µM (inactive)	> 100 µM (inactive)	92.3 µM (inactive)	> 100 µM (inactive)	39.1 µM (inactive)	70.6 µM (inactive)	29.7
